Test results taken from patent publication US4086347A, “9-[3-(4-Phenoxymethylpiperidino)-propyl]-adenines” (Boehringer Mannheim GmbH, priority 1975, dated 1978).

How the values were obtained:
[1] = system: passive cutaneous anaphylactic reaction in rats produced by injection of serum containing reaginic antibodies to egg albumin; test: Inhibition of passive cutaneous anaphylactic (PCA) reaction in rats induced by reaginic antibodies; format: in vivo, rat; conditions: intravenously immediately before antigen
Method: Diethylcarbamazin, i.e., 1-diethylcarbamoyl-4-methylpiperazine was used as a comparison compound. Specifically, tests were run as follows:
Serum containing reaginic (IgE-like) antibody to egg albumin was prepared by injecting rats intramuscularly with 0.1 ml of a solution of the antigen (10 mg/ml) in saline together with 0.5 ml of Bordetella pertussis vaccine (Behring; 2 × 10^10 organisms/ml). 9-14 Days later the animals were bled from the abdominal aorta; the serum was pooled and stored at -20° C until required. The titer of the serum, i.e., the highest dilution inducing passive cutaneous anaphylaxis (PCA) in the rat following a 48-hour latent period, was between 1:8 and 1:32. For use in these experiments the serum was diluted 1:24.
The animals were anesthetized with 2,2-dichloro-1,1-difluoroethyl-methyl ether, sold under the trademark Penthrane, and were sensitized by injecting 0.1 ml of the antiserum into the shaved abdominal flanks. After 48 hours for reaginic PCA, the animals were given an intravenous injection of 1 ml of saline solution containing 0.5% by weight of egg albumin and 0.25% by weight of Evans Blue.
After having killed and exsanguinated the animals, the size in square millimeters and the intensity, in arbitary scores, of the resulting blue spot were determined. The product of these two parameters was used to determine the degree of the reaction and the degree of reaction with no active material was taken as the standard against which to measure % inhibition of the anaphylactic reaction.
6 Animals were used per dose level and for control.
The test material was injected intravenously immediately before the antigen, using a solution in water containing 0.5% HCl and 2% of dimethylformamide. For comparative purposes there was also tested diethylcarbamoyl-4-methylpiperazine sold under the tradename Diethylcarbamazin. The volumes of the injections were varied to give the indicated dosage of active material. The results obtained were as follows:
(Ovalbumin 2 × cryst. and Bord. pertussis 2 × 10^10) Active material applied intravenously immediately before antigen

blood pressure = test: Blood pressure reduction in awake rats with arterial high pressure (sodium chloride / 11-deoxycorticosteroneacetate); format: in vivo, rat; conditions: 4 hours after application, median
Method: In order to establish the effectiveness of the novel products of the invention as agents for reducing blood pressure, a series of tests as follows were carried out.
The following were the test methods used:
The test animals were rats into which arterial catheters had been implanted in a sterile operation via the arteria femoralis into the aorta. It was possible to measure the animals' blood pressure in the awake state directly in the blood with a transducer (Statham Transducer Type TP 23 D 6) via a carrier frequency measuring bridge. The animals were treated by administration of 10% common salt (sodium chloride) in their feed and, starting on the sixth week of their life, two injections per week of 5 mg at a time of 11-deoxycorticosteroneacetate per animal and thus developed an arterial high pressure in the median with values of […]. The test compounds were administered to the animals as follows: After the blood pressure control values had been determined, the animals received the test compound perorally suspended in 10 ml of 1% methyl cellulose solution in the indicated dosage and measurements were taken 4 hours after oral application of the substance.
The values set forth in the Table represent in each case the median of at least 7 individual measurements of blood pressure depression (in mm Hg) per applied substance.

SMILES	Maximum Blood Pressure Reduction (blood pressure; 25 mg/kg perorally)	other results
CCN(CC)C(=O)N1CCN(C)CC1 [Diethylcarbamazin, 1-diethylcarbamoyl-4-methylpiperazine, reference compound]	–	% Inhibition PCA ([1]; 60.0 mg/kg): 58%
Nc1ncnc2c1ncn2CCCN1CCC(COc2ccccc2)CC1 [Example 1, 9-[3-(4-Phenoxymethylpiperidino)-propyl]-adenine]	-76 ± 5 mm Hg	% Inhibition PCA ([1]; 0.38 mg/kg): 27%; % Inhibition PCA ([1]; 0.75 mg/kg): 45%
Nc1ncnc2c1ncn2CCCN1CCC(COc2ccccc2Br)CC1 [Example 1a, 9-{3-[4-(2-bromophenoxymethyl)-piperidino]-propyl}-adenine]	-47 ± 7 mm Hg	–
Nc1ncnc2c1ncn2CCCN1CCC(COc2ccccc2Cl)CC1 [Example 1b, 9-{3-[4-(2-chlorophenoxymethyl)-piperidino]-propy}-adenine]	-64 ± 5 mm Hg	% Inhibition PCA ([1]; 0.38 mg/kg): 32%
Nc1ncnc2c1ncn2CCCN1CCC(COc2ccc(Cl)cc2)CC1 [Example 1d, 9-{3-[4-(4-chlorophenoxymethyl)-piperidino]-propyl}-adenine]	–	Maximum Blood Pressure Reduction (blood pressure; 50 mg/kg perorally): -25 ± 7 mm Hg
Nc1ncnc2c1ncn2CCCN1CCC(COc2ccc(F)cc2)CC1 [Example 1e, 9-{3-[4-(4-fluorophenoxymethyl)-piperidino]-propyl}-adenine]	-60 ± 7 mm Hg	% Inhibition PCA ([1]; 0.38 mg/kg): 54%
COc1cccc(OCC2CCN(CCCn3cnc4c(N)ncnc43)CC2)c1 [Example 1g, 9-{3-[4-(3-methoxy-phenoxymethyl)-piperidino]-propyl}-adenine]	-18 ± 4 mm Hg	–
COc1ccc(OCC2CCN(CCCn3cnc4c(N)ncnc43)CC2)cc1 [Example 1h, 9-{3-[4-(4-methoxy-phenoxymethyl)-piperidino]-propyl}-adenine]	-19 ± 3 mm Hg	–
Cc1ccccc1OCC1CCN(CCCn2cnc3c(N)ncnc32)CC1 [Example 1i, 9-{3-[4-(2-methyl-phenoxymethyl)-piperidino]-propyl}-adenine]	-55 ± 7 mm Hg	–
CNc1ncnc2c1ncn2CCCN1CCC(COc2ccccc2)CC1 [Example 1j, N^6-methyl-9-[3-(4-phenoxymethyl-piperidino)-propyl]-adenine]	–	% Inhibition PCA ([1]; 0.38 mg/kg): 21%; % Inhibition PCA ([1]; 0.75 mg/kg): 60%
CNc1ncnc2c1ncn2CCCN1CCC(COc2ccc(F)cc2)CC1 [Example 1k, N^6-methyl-9-{3-[4-(4-fluorophenoxy-methyl)-piperidino]-propyl}-adenine]	-49 ± 8 mm Hg	% Inhibition PCA ([1]; 0.38 mg/kg): 21%
CCNc1ncnc2c1ncn2CCCN1CCC(COc2ccc(F)cc2)CC1 [Example 1m, N^6-ethyl-9-{3-[4-(4-fluorophenoxy-methyl)-piperidino]-propyl}-adenine]	-20 ± 6 mm Hg	–
OCCNc1ncnc2c1ncn2CCCN1CCC(COc2ccccc2)CC1 [Example 1n, N^6-(2-hydroxyethyl)-9-[3-(4-phenoxy-methyl-piperidino)-propyl]-adenine]	-48 ± 5 mm Hg	–
CCCNc1ncnc2c1ncn2CCCN1CCC(COc2ccccc2)CC1 [Example 1o, N^6-n-propyl-9-[3-(4-phenoxymethyl-piperidino)-propyl]-adenine]	-67 ± 7 mm Hg	–
CCCNc1ncnc2c1ncn2CCCN1CCC(COc2ccc(F)cc2)CC1 [Example 1p, N^6-n-propyl-9-{3-[4-(4-fluorophenoxy-methyl)-piperidino]-propyl}-adenine]	-57 ± 8 mm Hg	–
CN(C)c1ncnc2c1ncn2CCCN1CCC(COc2ccccc2)CC1 [Example 1q, 6-dimethylamino-9-[3-(4-phenoxymethyl-piperidino)-propyl]-purine]	-41 ± 7 mm Hg	–
CCCCNc1ncnc2c1ncn2CCCN1CCC(COc2ccc(F)cc2)CC1 [Example 2, N^6-n-Butyl-9-{3-[4-(4-fluorophenoxymethyl)-piperidino]propyl}-adenine]	-53 ± 6 mm Hg	–
CC(C)Nc1ncnc2c1ncn2CCCN1CCC(COc2ccccc2)CC1 [Example 2a, N^6-isopropyl-9-[3-(4-phenoxymethyl-piperidino)-propyl]-adenine]	-35 ± 9 mm Hg	–
CCCCNc1ncnc2c1ncn2CCCN1CCC(COc2ccccc2)CC1 [Example 2b, N^6-n-butyl-9-[3-(4-phenoxymethyl-piperidino)-propyl]-adenine]	–	Maximum Blood Pressure Reduction (blood pressure; 50 mg/kg perorally): -35 ± 11 mm Hg
CC(N)(Cc1ccc(O)c(O)c1)C(=O)O (stereo not drawn) [α-Methyl-Dopa, reference compound]	–	Maximum Blood Pressure Reduction (blood pressure; 150 mg/kg perorally): -33 ± 5 mm Hg
